Consider 8 compounds from patent US10767151B2, “Device for cell culture” (priority 2008, dated 2020).

Format in all cases: cell-based, mouse
One experiment concerns cortical neurons. Kind of experiment: Saponin axotomy of cortical neurons in three-chamber device, axonal fragmentation by tubulin labeling (Example 20). The settings on record: for occurrence of axon fragmentation after axotomy: 50 μM applied to the distal segments of axons at the time of axotomy, FIG. 29; for protective effect against axon fragmentation after axotomy: applied 24 h before axotomy (not shown). As to the method: The cortices of 14-day mouse embryos are dissected and dissociated as has already been described elsewhere, for example Eur J Neurosci 2001 June; 13(11): 2037-46 William S et al. The neurons are seeded into the somatic chamber (also called compartment) of the circuits at a density of 10^5 cells/cm^2. In this manner, about 4×10^4 neurons are seeded into the somatic chamber. The culture medium consists of DMEM containing 4.5 g/l D-glucose and pyruvate (Invitrogen, Carlsbad, USA), supplemented with 10% of FCS (fetal calf serum; PAA Laboratories, Pasching, Germany) and with 2% of B27 (Invitrogen). The medium is replaced every three days until the beginning of the experiment, and the cultures are conserved in an incubator at 37° C. and 5% CO2. The experiments are carried out after 7 to 8 days of culture in vitro. The calpain inhibitor N-acetyl-Leu-Leu-Nle-CHO (ALLN; Calbiochem), the general caspase inhibitor Z—V-A-D-fluoromethyl ketone (z-VAD; R1D Systems, Minneapolis, USA) and β-nicotinamide adenine dinucleotide hydrate (βNAD; Sigma) are introduced into the culture medium at the beginning of the experiments.
In order to carry out the axotomy, a flow of 15 μl of medium containing 0.1% of saponin is produced for 2 minutes in the central chamber. In order to avoid the flow of detergent entering the microchannels, an overpressure is maintained in the somatic and axonal chambers throughout the experiment. After 2 minutes of flow, the medium containing the saponin is removed and the central macrochannel is rinsed with culture medium for 5 min. Fresh medium is then added to this channel.
After a given culture time (optionally according to the moment at which the axotomy experiment is carried out), the neuron cultures are fixed with a 4% paraformaldehyde solution (Sigma) so as to undergo analysis by immunocytochemistry. The circuits are labeled by immunofluorescence with an anti-MAP2 antibody (rabbit IgG, 1:3000; Chemicon, Temecula, USA), and an anti-β-III-tubulin monoclonal antibody (mouse IgG, 1:3000; Sigma) for labeling the cytoskeletal proteins. The circuits are fluorescently labeled with Hoechst 33342 (1:25000; Sigma) for labeling the nucleus. In a separate experiment, the circuits were also labeled by immunofluorescence with an anti-glial fibrillary acidic protein antibody (GFAP, rabbit IgG, 1:5000; DakoCytomation, Glostrup, Denmark) which makes it possible to label the astrocytes. A part of the cultures was subjected to fixing and extraction. This procedure makes it possible to eliminate the tubulin free in the cytoplasm while at the same time fixing the microtubules. These cultures were labeled by immunofluorescence with an anti-a-tubulin monoclonal antibody conjugated to the fluorophore FITC (Sigma) and labeled with phalloidin linked to an Alexa Fluor 555 (Invitrogen) so as to reveal the microtubules and the actin cytoskeleton, respectively. The images were acquired using an inverted epifluorescence microscope (Zeiss, Goettingen, Germany) equipped with a CoolSnap HQ2 camera (Roper Scientific, Ottobrunn, Germany) and using the micro-manager acquisition software (http://www.micro-manager.org).
The axonal degeneration is estimated by comparing the type of tubulin labeling of fragmented axons or of intact axons. Good survival, in culture, of the cortical neurons is dependent on the initial seeding density, which must be high. Consequently, a large number of cortical axons invade the central and distal chambers. Moreover, since the cortical axons have many branches, the immunohistochemical analysis of the axonal tubulin in the axonal chambers is therefore complex, and the axons are difficult to individualize. The proportion of axon entering the central chamber and emerging in the distal axonal chamber was estimated by calculating a ratio of intensity of overall fluorescence of the b3-tubulin labeling of identical surface areas captured in the central chamber and the distal axonal chamber. […]

Another experiment has as its system striatal erk kinase. The experiment is described as follows: Phosphorylation of striatal erk kinase in corticostriatal network, device D3 (Example 13). To be noted: after seven days in vitro; cortical depolarization. As to the method: FIG. 18 represents microfluidic chambers separated by asymmetrical microchannels.
This experiment was carried out with the device D3.
The cortical neurons are seeded on the left and the striatal neurons on the right. After seven days in vitro, the cortical axons establish connections with the striatal neurons (β3-tubulin in green, striatal neurons in red (MAP2)).

The test system of the next experiment is Cerebellar neurons. Kind of experiment: Axonal degeneration of cerebellar neurons after somatic staurosporin, microfluidic device D1 (Example 14). To be noted: for axon-protecting effect against staurosporin-induced axonal degeneration: compound applied concomitantly to the axons only, staurosporin on the somas. As to the method: Cerebellar neurons are seeded into microfluidic devices according to the invention and treated with an apoptosis inducer (1 μM staurosporin, STS) at the somatic level. This induces axonal degeneration in the distal chamber (Phi). Apoptosis-blocking compounds (zVAD) or proteases of calpain type (Cal-Inh) are applied specifically to the axons (and not to the somas). The “axon-protecting” effect is quantified on the graph on the right in FIG. 19. Devices D1 are used. Neurons (in this case from the cerebellum) are seeded and their axons pass through the asymmetrical microchannels so as to reach the second chamber (or the 3rd if the device has three compartments). A stress (in this case staurosporin, which is a pro-apoptotic agent) is applied to the soma of the neurons. […] The effect of “axon-protecting” molecules can thus be evaluated. FIG. 19 illustrates the start of axonal degeneration induced by the application of a pro-apoptotic stress applied to the somato-dendritic compartment of neurons. This causes the propagation of a destructive signal in the axon, which then degenerates early, before the cell soma.

The test system of the next experiment is cortical axons. Kind of experiment: Axotomy of the central portion of cortical axons in three-chamber device D4, Wallerian degeneration model (Example 15). The protocol: The microfluidic device represented in image 4a of FIG. 20 is similar to that described previously with reference to FIGS. 1C to 1H and comprises three chambers. It is device D4. This makes it possible to apply molecules of interest on the central portion of the axons, for example a detergent (Triton X100, 0.1%), applied for 1 min. […] In this example, although the cortical axons sectioned in their central portion are still intact after one hour of section, they degenerate after 4 h. This constitutes a model of Wallerian degeneration (degeneration of the distal portion of axons). The potential of compounds which protect against this effect can be evaluated by applying them specifically in one or more of the chambers of the device. […] This experiment was carried out with device D4. The experiment, carried out on a corticostriatal network, makes it possible to illustrate that it is possible to objectivize a phenomenon of synaptic degeneration after application of a stress at the cortical level (in this case axotomy) (disappearance of Vglu-1 labeling which is specific for cortical presynaptic structures). […] FIGS. 20 and 21 illustrate the consequences of the axotomy of cortical axons of a corticostriatal network. […]

In another experiment the test system is corticostriatal network. The experiment is described as follows: Synaptic degeneration on a corticostriatal network after cortical axotomy, Vglut-1 presynaptic structures (Example 16). The settings on record: NAD added to striatal compartment at the time of axotomy / pretreated. As to the method:
Photographs a and b of FIG. 21 represent cortical, central and striatal chambers of reconstructed corticostriatal networks in three-chamber microfluidic devices.
The neurons were labeled on MAP2 (blue), β3-tubulin (green) and Vglut-1 (red).
Photograph c is representative of cortical-presynaptic structures (Vglut1, red) attached to striatable dendrites (MAP2, blue) after 1, 2, 4 and 6 hours of axotomy or controlled culture or culture pretreated with NAD.
Photograph d illustrates the quantification of a presynaptic cortical structure attached to MAP2-positive striatal dendrites after cortical axotomy.
This experiment was carried out with device D4. The experiment, carried out on a corticostriatal network, makes it possible to illustrate that it is possible to objectivize a phenomenon of synaptic degeneration after application of a stress at the cortical level (in this case axotomy) (disappearance of Vglu-1 labeling which is specific for cortical presynaptic structures). […] FIGS. 20 and 21 illustrate the consequences of the axotomy of cortical axons of a corticostriatal network. This axotomy causes the propagation of a signal resulting in rapid degeneration of the presynaptic compartment (FIG. 21) of the corticostriatal junction, and then in degeneration of the cortical axons (FIG. 20).

“Also recorded” adds a separate entry of the source. Where a SMILES comes first, the peptide text is derived from it. [ ]: non-standard residue; d: D form. The star is where a group is joined. Nle = CCCC[C@H](N)C(=O)O; Cbz = O=C(OCc1ccccc1)*; CH2F = FC*

As for `CCCC[C@@H](C=O)NC(=O)[C@H](CC(C)C)NC(=O)[C@H](CC(C)C)NC(C)=O` [ALLN, N-acetyl-Leu-Leu-Nle-CHO] (Ac-Leu-Leu-[Nle]-aldehyde), in the experiment with cortical neurons, the “occurrence of axon fragmentation after axotomy” value is listed as “does not delay the occurrence of axon fragmentation” and the “protective effect against axon fragmentation after axotomy” value is “absence of protective effect”.
For `[Cl-].[K+]` [KCl], the “phosphorylation of the striatal erk kinase” value in the experiment on striatal erk kinase is “triggers phosphorylation”.
Same read-out and setting: for `C[C@]12N[C@H](Cc3ccccc31)c1ccccc12` [MK801] the value was “inhibition”.
Consider `NC(=O)c1ccc[n+]([C@@H]2O[C@H](COP(=O)([O-])OP(=O)(O)OC[C@H]3O[C@@H](n4cnc5c(N)ncnc54)[C@H](O)[C@@H]3O)[C@@H](O)[C@H]2O)c1` [NAD, β-nicotinamide adenine dinucleotide hydrate], for which the “axon-protecting effect against staurosporin-induced axonal degeneration” value with Cerebellar neurons is on record as “delays this axonal degeneration”. Besides, in the experiment with cortical axons (after axotomy, NAD added to the striatal compartment at the time of axotomy, FIG. 20, hydrate), the “degeneration of transected cortical axons (axon-protecting effect)” value is on record as “axon-protecting effect; also recorded: delays”. Further, the “presynaptic degeneration of the corticostriatal junction (Vglut-1)” value is given as “delays presynaptic degeneration” with corticostriatal network (FIG. 21, hydrate) and “Delays Deconnection” in the experiment on corticostriatal network (FIG. 21, listed as NAD+, hydrate). For the same compound, the “degeneration of cut axons” value in the experiment with cortical neurons (5 mM pretreatment 24 h before axotomy, 8 h after axotomy (all control axons fragmented)) was “do not exhibit any sign of degeneration”. Further, the “persistence of axon protection” value in the experiment with cortical neurons (5 mM pretreatment 24 h before axotomy, 24 hours after axotomy) is “protection disappears”. Moreover, the “signs of axonal degeneration after axotomy” value with cortical neurons (neurons pretreated 24 h before axotomy with 5 mM) is “delayed”.
Take `CN[C@@H]1C[C@H]2O[C@@](C)([C@@H]1OC)n1c3ccccc3c3c4c(c5c6ccccc6n2c5c31)C(=O)NC4` [staurosporin]: in the experiment with Cerebellar neurons (1 μM staurosporin at the somatic level, axons in distal chamber, in 24 h), the “axon degeneration induced by stress applied to the soma” value was “induces axon degeneration”.
For the compound `COC(=O)C[C@H](NC(=O)[C@H](C)NC(=O)[C@@H](NC(=O)OCc1ccccc1)C(C)C)C(=O)CF` [zVAD] (Cbz-Val-Ala-Asp(OMe)-CH2F), in the experiment with Cerebellar neurons, the “axon-protecting effect against staurosporin-induced axonal degeneration” value is “prevents this degeneration; also recorded: delays this axonal degeneration”. In the experiment with cortical neurons, the “occurrence of axon fragmentation after axotomy” value was “does not delay the occurrence of axon fragmentation” and the “protective effect against axon fragmentation after axotomy” value is on record as “absence of protective effect”.
Triton X100: the “section of axons by detergent” value with cortical axons (Triton X100 0.1% applied for 1 min on central portion of the axons) is listed as “immediate section of the central portion of the axons”.
As to saponin, in the experiment on cortical neurons (0.1% saponin, flow for 2 minutes in the central compartment), the “destruction of axon segments by detergent flow” value is “immediate destruction of the axon segments contained in the central compartment”.
